Entries after “also recorded” stand apart in the source; their conditions may differ.
System: NCI-H1048 human lung cancer xenograft
Experiment: NCI-H1048 human lung cancer xenograft model, tumor growth inhibition (BALB/c nude mice)
Assay type: in vivo, mouse (BALB/c nude); human tumor cells
Conditions: FIG. 1
Source text: Among other things, provided technologies are useful for treating various diseases, disorders, or conditions. For example, in some embodiments, provided technologies are useful for treating cancer as confirmed in the present Example. In some embodiments, the present disclosure provides technologies for assessing various technologies, e.g., compounds, compositions, or methods. Among other things, the present Example provides technologies, e.g., xenograft model, for assessing various technologies. In some embodiments, provided technologies are assessed in tumor xenograft model. In some embodiments, provided technologies are assessed in NCI-H1048 human lung cancer xenograft model. […]
As described herein, various provided technologies are assessed in cancer xenograft models. […] A number of doses were assessed including 30 mg/kg. Assessed compounds were administered orally or via the intraperitoneal route. […]
Cell culture: NCI-H1048 tumor cells are maintained in vitro as monolayer culture in HITES Medium supplemented with 5% fetal bovine serum at 37° C. in an atmosphere of 5% CO2 in air. […] The cells growing in an exponential growth phase are harvested and counted for tumor inoculation. […]
Measurement Parameters: For routine monitoring, animals are monitored for tumor growth, behavior (e.g., mobility, food and water consumption), body weight (BW), eye/hair matting and other effects. […]

SMILES: CN1C[C@H](Nc2cnn(C)c(=O)c2Br)C[C@H](c2ccc(C(=O)N3CCC(CN4CCN(c5ccc6c(c5)CN(C5CCC(=O)NC5=O)C6=O)CC4)CC3)cc2)C1 (stereo partly drawn) [Compound 22, 3-(5-(4-((1-(4-((3R,5R)-5-((5-bromo-1-methyl-6-oxo-1,6-dihydropyridazin-4-yl)amino)-1-methylpiperidin-3-yl)benzoyl)piperidin-4-yl)methyl)piperazin-1-yl)-1-oxoisoindolin-2-yl)piperidine-2,6-dione]
- tumor growth inhibition in vivo: tumor growth inhibition in vivo; also recorded: inhibit cell growth in vitro and in vivo

— patent US20260306640A1, “TECHNOLOGIES TARGETING CELL STATES” (Auron Therapeutics, Inc., priority 2023, published 2026)
